Tests used:
[1] = The drug is tested on Bifidobacterium longum subsp. Infantis strain: CCUG52486 for biotransformation. The drug concentrations were measured before and after a 12-h incubation by liquid-chromatography-coupled mass spectrometry (LC–MS); conditions: 2 µM
[2] = bacteroides thetaiotaomicron, 12 h, 2 µM
Description: The drug is tested on Bacteroides thetaiotaomicron strain: VPI-5482 for biotransformation. The drug concentrations were measured before and after a 12-h incubation by liquid-chromatography-coupled mass spectrometry (LC–MS)

[3] = akkermansia muciniphila, 12 h, 2 µM
Description: The drug is tested on Akkermansia muciniphila strain: ATCC BAA-835 for biotransformation. The drug concentrations were measured before and after a 12-h incubation by liquid-chromatography-coupled mass spectrometry (LC–MS)

[4] = victivallis vadensis, 12 h, 2 µM
Description: The drug is tested on Victivallis vadensis strain: ATCC BAA-548 for biotransformation. The drug concentrations were measured before and after a 12-h incubation by liquid-chromatography-coupled mass spectrometry (LC–MS)

[5] = The drug is tested on Bacteroides pectinophilus strain: ATCC43243 for biotransformation. The drug concentrations were measured before and after a 12-h incubation by liquid-chromatography-coupled mass spectrometry (LC–MS); conditions: 2 µM
[6] = enterocloster bolteae, 12 h, 2 µM
Description: The drug is tested on Clostridium bolteae strain: ATCCBAA-613 for biotransformation. The drug concentrations were measured before and after a 12-h incubation by liquid-chromatography-coupled mass spectrometry (LC–MS)

[7] = The drug is tested on Eggerthella lenta strain: ATCC25559 for biotransformation. The drug concentrations were measured before and after a 12-h incubation by liquid-chromatography-coupled mass spectrometry (LC–MS); conditions: 2 µM

Measured: Bacterial Biotransformation

Cc1cc2c(cc1S(N)(=O)=O)S(=O)(=O)CCC2
not listed: [7]
Compound NOT metabolized: all other assays above

CN1CCc2c(c3ccccc3n2Cc2ccccc2)C1.CN1CCc2c(c3ccccc3n2Cc2ccccc2)C1.O=S(=O)(O)c1cccc2c(S(=O)(=O)O)cccc12
not listed: [4]
Compound NOT metabolized: all other assays above

CC1OC(OC2C(O)CC(OC3C(O)CC(OC4CCC5(C)C(CCC6C5CCC5(C)C(C7=CC(=O)OC7)CCC65O)C4)OC3C)OC2C)CC(O)C1O (stereo unspecified)
Compound metabolized: [2]
not listed: [7]
Compound NOT metabolized: all other assays above

CN1[C@@H]2CC[C@H]1C[C@@H](OC(=O)C(CO)c1ccccc1)C2 (stereo partly specified) [ATROPINE]
Compound NOT metabolized: [1] | [7] | [3] | [5]

CN(C)CC(c1ccc(O)cc1)C1(O)CCCCC1.O=C(O)CCC(=O)O (stereo unspecified) [DESVENLAFAXINE SUCCINATE]
not listed: [4]
Compound NOT metabolized: all other assays above

OCCN(CCO)c1nc(N2CCCCC2)c2nc(N(CCO)CCO)nc(N3CCCCC3)c2n1 [DIPYRIDAMOLE]
Compound NOT metabolized: [1] | [7] | [2] | [3]

O=c1[nH]c2ccccc2n1CCCN1CCC(n2c(=O)[nH]c3cc(Cl)ccc32)CC1 [DOMPERIDONE]
not listed: [7]
Compound NOT metabolized: all other assays above

COc1cc2nc(N3CCN(C(=O)C4COc5ccccc5O4)CC3)nc(N)c2cc1OC.CS(=O)(=O)O (stereo unspecified) [DOXAZOSIN MESYLATE]
Compound NOT metabolized: [2] | [3] | [4] | [5]

CCOC(=O)[C@H](CCc1ccccc1)N[C@@H](C)C(=O)N1CCC[C@H]1C(=O)O.O=C(O)/C=C\C(=O)O [ENALAPRIL MALEATE]
not listed: [2] | [7]
Compound NOT metabolized: all other assays above

OC(Cn1cncn1)(Cn1cncn1)c1ccc(F)cc1F [FLUCONAZOLE]
Compound metabolized: [2] | [3]
not listed: [4]
Compound NOT metabolized: all other assays above

COC(=O)C1=C(C)NC(C)=C(C(=O)OC(C)C)C1c1cccc2nonc12 (stereo unspecified) [ISRADIPINE]
not listed: [4]
Compound NOT metabolized: all other assays above

CN1CCC(=C2c3ccccc3CC(=O)c3sccc32)CC1.O=C(O)/C=C/C(=O)O [KETOTIFEN FUMARATE]
not listed: [4] | [6]
Compound NOT metabolized: all other assays above

CC(CCc1ccccc1)NCC(O)c1ccc(O)c(C(N)=O)c1 (stereo unspecified) [LABETALOL]
not listed: [4]
Compound NOT metabolized: all other assays above

CCN(CC)CCOC(=O)C(Cc1cccc2ccccc12)CC1CCCO1.O=C(O)C(=O)O (stereo unspecified) [NAFRONYL OXALATE]
not listed: [5] | [7]
Compound NOT metabolized: all other assays above

COc1ccccc1N1CCN(CC(O)COc2cccc3ccccc23)CC1 (stereo unspecified) [NAFTOPIDIL]
not listed: [4]
Compound NOT metabolized: all other assays above

Cc1cc2c(s1)Nc1ccccc1N=C2N1CCN(C)CC1 [OLANZAPINE]
not listed: [2] | [7]
Compound NOT metabolized: all other assays above

COc1ccc(Cc2nccc3cc(OC)c(OC)cc23)cc1OC [PAPAVERINE]
not listed: [3] | [4]
Compound NOT metabolized: all other assays above

Source: ChEMBL document CHEMBL5303573, “Mapping human microbiome drug metabolism by gut bacteria and their genes” (Nature, 2019)
